Data set [1] is described as follows: Photostabilization of avobenzone in ethanol test solution under sun simulator. The protocol:
A comparative photostabilization study was conducted comparing the photostabilization efficacy of the compound of Example 1, HSS, and the compound of Example 3 (Compound 3) with Octocrylene and Oxynex® ST in the stabilization of avobenzone. Samples for evaluation were prepared as follows:
Solutions in ethanol are prepared at respective concentrations of photosensitive materials and photostabilizer (typically 1:1 to 1:5 weight ratio). A base test solution of 3% Avobenzone+5% Octyl salicylate +10% Homoslate in Ethanol (the “Test Solution”) was made. Seven additional solutions were prepared by adding 2% Synoxyl™ HSS, 4% Synoxyl™ HSS, 4% Compound 3, 2% Octocrylene, 4% Octocrylene, 2% Oxynex® ST, and 2% dehydrozingerone methyl ether, respectively, to seven aliquots of the Test Solution.
(§1) Samples of each solution were prepared as ultrathin films between two quartz plates so as to obtain a minimum of 90% light transmission over the entire spectrum range of non absorbing chromophores. For example, ingredients which absorb only in the UV range were tested in formulation to obtain a minimum of 90% light transmission over the visible range. Each sample was then irradiated under sun simulator (754 W/m^2, 2 MED/h, UV dose from 20 to 100 Joules/cm^2) for various durations and light absorption spectra recorded for each sample at given times. The maximal absorption band λmax of each solution was determined before and after irradiation. The amount of the photosensitive materials remaining in solution after irradiation was calculated as the ratio of their two maximal absorptions.

For data set [2] the following is noted: solar simulator, total energy 100 mJ/cm^2; cited from earlier work.
The nature of data set [3]: Photostability of sunscreen formulation under sun simulator. As to conditions: 4% stabilizer in sunscreen with 2% butyl methoxydibenzoylmethane. The protocol: as §1
Three samples of this were taken for photostability testing according to the method of Example 6 above. The first sample, the Control, was not modified whereas the two remaining samples were modified by incorporating therein 2% of the compound of Example 1, HSS, and 4% octocrylene, respectively. The three formulations were prepared by first preparing each of Phase A1 and A2 and then dispersing Phase A2 in Phase A1 with agitation and heating to 75 C. Phase B was prepared and heated to 75° C. Phase B is then combined with the Phase A mixture with continuous stirring. The combination was subsequently homogenized for 2-3 minutes, and the batch cooled to 45° C. Phases C and were separately prepared and then mixed with the cooled batch until uniform.
As with Example 6, each was exposed to irradiation for various durations and the photostability tested. As evidenced from the results shown in Table 7, the stabilizer compound of the present invention performed markedly better than that of the conventional photostabilizer in the formulated product.

The conditions of data set [4]: cited from earlier work.
Where [5] appears, read: 4% stabilizer in Test Solution (3% Avobenzone), UV dose 0 Joules/cm^2.
The mark [6] stands for this setting: 4% stabilizer in Test Solution (3% Avobenzone), UV dose 20 Joules/cm^2.
Setting [7] is: 4% stabilizer in Test Solution (3% Avobenzone), UV dose 40 Joules/cm^2.
[8] abbreviates: 4% stabilizer in Test Solution (3% Avobenzone), UV dose 60 Joules/cm^2.
Where [9] appears, read: 4% stabilizer in Test Solution (3% Avobenzone), UV dose 80 Joules/cm^2.
The mark [10] stands for this setting: 4% stabilizer in Test Solution (3% Avobenzone), UV dose 100 Joules/cm^2.
Where [11] appears, read: 2% stabilizer in Test Solution (3% Avobenzone), UV dose 0 Joules/cm^2.
Setting [12] is: 2% stabilizer in Test Solution (3% Avobenzone), UV dose 20 Joules/cm^2.
Setting [13] is: 2% stabilizer in Test Solution (3% Avobenzone), UV dose 40 Joules/cm^2.

Take `COc1ccc(C=C(C(C)=O)C(C)=O)cc1` [Compound 3, 3-(4-methoxybenzylidene)-2,4-pentanedione]: the melting point (as a rule, the temperature of the solid-liquid transition) fell in the range of 82 to 84 °C. Besides, the “% remaining” value in data set [1] (setting [5]) was 100%. Further, the “% remaining” value in data set [1] (setting [6]) is given as 96%. For the same compound, in data set [1] (setting [7]), the “% remaining” value is reported as 90%. In addition, in data set [1] (setting [8]), the “% remaining” value was 80%. Further, the “% remaining” value in data set [1] (setting [9]) is 73%. In addition, the “% remaining” value in data set [1] (setting [10]) was 68%.

On to `COc1ccc(/C=C/C(C)=O)cc1OC` [Dehydrozingerone methyl ether, Dehydrozingerone methylether], for which the “% remaining” value is listed as 100% in data set [1] (setting [11]), 59% in data set [1] (setting [12]) and 26% in data set [1] (setting [13]). In addition, in data set [1] (summary statement), the “stabilization of photosensitive compounds” value is listed as “fails to stabilize photosensitive compounds”.

For the compound `Cc1ccc(C(C)C)cc2c(C)ccc1-2` [Guaiazulene], in data set [2], the “lost due to degradation” value is on record as approximately 90%.

As to `CCCCC(CC)COC(=O)C(C#N)=C(c1ccccc1)c1ccccc1` (stereo not shown) [Octocrylene], the “photostability of sunscreen formulation (% remaining)” value in data set [3] (UV dose 0 Joules/cm^2) is given as 100%; in data set [3] (UV dose 20 Joules/cm^2), 94%; in data set [3] (UV dose 40 Joules/cm^2) it was 89%; in data set [3] (UV dose 60 Joules/cm^2) it was 82%. Also, the “% remaining” value in data set [1] (setting [11]) was 100%; in data set [1] (setting [12]) it was 92%; in data set [1] (setting [13]), 80%; in data set [1] (2% stabilizer in Test Solution (3% Avobenzone), UV dose 60 Joules/cm^2) it was 68%; in data set [1] (2% stabilizer in Test Solution (3% Avobenzone), UV dose 80 Joules/cm^2) it was 64%; in data set [1] (2% stabilizer in Test Solution (3% Avobenzone), UV dose 100 Joules/cm^2), 58%. Besides, the “% remaining” value is on record as 100% in data set [1] (setting [5]); 94% in data set [1] (setting [6]); 83% in data set [1] (setting [7]); 73% in data set [1] (setting [8]); 67% in data set [1] (setting [9]); 60% in data set [1] (setting [10]).

In the case of `CC1=C(/C=C/C(C)=C/C=C/C(C)=C\C(=O)O)C(C)(C)CCC1` [isotretinoin, 13-cis-retinoic acid], the “solubility in diethylhexyl diester of 2,6-naphthalene-dicarboxylic acid” value in data set [4] is reported as “approximately 6.7 mg/ml”.

As to `CC1=C(/C=C/C(C)=C/C=C/C(C)=C/C(=O)O)C(C)(C)CCC1` [tretinoin, all-trans-retinoic acid], the “solubility in diethylhexyl diester of 2,6-naphthalene-dicarboxylic acid” value in data set [4] is on record as “approximately 5.6 mg/ml”. For the same compound, the solubility in water result in data set [4] (water) is listed as “practically insoluble”.

Values taken from patent US8617528B2, “Compositions and methods for stabilizing ingredients using 2,4-pentanedione compounds” (Sytheon Ltd., priority 2010, dated 2013).
